One block for each compound: values may come before it.
Experiments:
Assay in all cases: Cell growth inhibition assay (MTS)
Type in all cases: cell-based
SK-MEL-2 = conditions: Homo sapiens; SK-MEL-2, 72 hours
In short: (§1)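 Cancer cells in DMEM with 10% FBS were seeded at 1-5×10^3 per well, cultured 24 h at 37° C., then exposed to test compounds for 72 hours. MTS plus PMS was added for 4 hr and formazan absorbance read at 492 nm; IC50 is the concentration giving 50% absorbance decrease.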

NCI-H526 = conditions: Homo sapiens; NCI-H526, lung carcinoma, variant small cell lung cancer
In short: as §1

HCT-15 = conditions: Homo sapiens; HCT-15, colon
In short: as §1

LS174T = conditions: Homo sapiens, colorectal carcinoma
In short: as §1

SW620 = conditions: Homo sapiens, SW-620; SW620, colorectal adenocarcinoma
In short: as §1

CALU-6 = conditions: Homo sapiens; CALU-6, lung
In short: as §1

LOVO = conditions: Homo sapiens, colorectal carcinoma
In short: as §1

CFPPAC-1 = conditions: Homo sapiens; CFPPAC-1, pancreasductal adenocarcinoma; cystic fibrosis
In short: as §1

PANC-1 = conditions: Homo sapiens; PANC-1, pancreas epithelioid carcinoma
In short: as §1

HT29 = conditions: Homo sapiens, HT-29; HT29, colorectal carcinoma
In short: as §1

SW480 = conditions: Homo sapiens; SW480, colon
In short: as §1

NCI-H460 = conditions: Homo sapiens; NCI-H460, large cell lung carcinoma
In short: as §1

SK-OV-3 = conditions: Homo sapiens; SK-OV-3, ovary
In short: as §1

HEP-G2 = conditions: Homo sapiens, HepG2; HEP-G2, hepatocellular carcinoma
In short: as §1

CAKI-2 = conditions: Homo sapiens; CAKI-2, kidney
In short: as §1

KG-1 = conditions: Homo sapiens; KG-1, AML
In short: as §1

HEC1A = conditions: Homo sapiens, HEC-1-A, endometrial
In short: as §1

NCI-H1993 = conditions: Homo sapiens; NCI-H1993, lung adenocarcinoma
In short: as §1

NTERA-2 c1. D1 = conditions: Homo sapiens, NTERA2; NTERA-2 c1. D1, testis pluripotent embryonal carcinoma
In short: as §1

A427 = conditions: Homo sapiens, A-427; A427, lung Carcinoma
In short: as §1

KG-1a = conditions: Homo sapiens, AML
In short: as §1

WIDR = conditions: Homo sapiens, colorectal adenocarcinoma
In short: as §1

MDAMB-231 = conditions: Homo sapiens, MDA-MB-231; MDAMB-231, breast adenocarcinoma
In short: as §1

NCI-H520 = conditions: Homo sapiens; NCI-H520, squamous cell lung carcinoma
In short: as §1

SK-LMS-1 = conditions: Homo sapiens; SK-LMS-1, leiomyosarcoma
In short: as §1

CAKI-1 = conditions: Homo sapiens; CAKI-1, kidney
In short: as §1

U937 = conditions: Homo sapiens, U-937; U937, monocyte histocytic lymphoma
In short: as §1

MCF-7 = conditions: Homo sapiens, MCF7; MCF-7, breast adenocarcinoma
In short: as §1

NCI-H441 = conditions: Homo sapiens; NCI-H441, lung papillary adenocarcinoma
In short: as §1

786-O = conditions: Homo sapiens, 786-0, kidney
In short: as §1

LS411N = conditions: Homo sapiens, LS-411N, colorectal carcinoma
In short: as §1

PLC/PRF/5 = conditions: Homo sapiens; PLC/PRF/5, liver
In short: as §1

SK-HEP-1 = conditions: Homo sapiens, SK-HEP1; SK-HEP-1, liver adenocarcinoma
In short: as §1

HT-1080 = conditions: Homo sapiens; HT-1080, fibrosarcoma
In short: as §1

GI50 (SK-MEL-2): 0.154 µM
Structure (SMILES): Cn1ccc(S(=O)(=O)N2CCC[C@@H](Nc3nccc(-c4c(-c5cccc(O)c5)nc5occn45)n3)C2)n1 [Compound 17, (R)-3-(5-(2-(1-(1-methyl-1H-pyrazol-3-ylsulfonyl)piperidin-3-ylamino)pyrimidin-4-yl)imidazo[2,1-b]oxazol-6-yl)phenol]

GI50 (NCI-H526): 58.9 µM | GI50 (HCT-15): 23.2 µM | GI50 (SW620): 22.8 µM | GI50 (CALU-6): 2.97 µM | GI50 (LOVO): 2.17 µM | GI50 (PANC-1): 29.7 µM | GI50 (HT29): 5.03 µM | GI50 (SW480): 8.27 µM | GI50 (NCI-H460): 19.3 µM | GI50 (SK-OV-3): 13.7 µM | GI50 (HEP-G2): 1.38 µM | GI50 (NCI-H1993): 26.2 µM | GI50 (MDAMB-231): 28.2 µM | GI50 (NCI-H520): 20.2 µM | GI50 (SK-LMS-1): 15.2 µM | GI50 (U937): 20.2 µM | GI50 (MCF-7): 12.5 µM | GI50 (NCI-H441): 17.8 µM | GI50 (786-O): 18.2 µM | GI50 (SK-HEP-1): 7.22 µM | GI50 (HT-1080): 26.8 µM
Structure (SMILES): Cn1ccc(S(=O)(=O)N2CCC[C@@H](Nc3nccc(-c4c(-c5cccc(OCOP(=O)(O)O)c5)nc5occn45)n3)C2)n1 [Compound 19, (R)-(3-(5-(2-(1-(1-methyl-1H-pyrazol-3-ylsulfonyl)piperidin-3-ylamino)pyrimidin-4-yl)imidazo[2,1-b]oxazol-6-yl)phenoxy)methyl dihydrogen phosphate]
GI50 (LS174T): 5.9 µM | GI50 (CFPPAC-1): 11.9 µM | GI50 (CAKI-2): 26.2 µM | GI50 (KG-1): 30.8 µM | GI50 (HEC1A): 2.72 µM | GI50 (NTERA-2 c1. D1): 5.32 µM | GI50 (A427): 3.23 µM | GI50 (KG-1a): 11.5 µM | GI50 (WIDR): 20.2 µM | GI50 (CAKI-1): 30.3 µM | GI50 (LS411N): 0.31 µM | GI50 (PLC/PRF/5): 13.6 µM
